Laboratory results: PMC9936582, “Sulfamate Acetamides as Self-Immolative Electrophiles for Covalent Ligand-Directed Release Chemistry” (Journal of the American Chemical Society, 2023)
Entries after “also recorded” stand apart in the source; their conditions may differ.

Tests used:
BTK [1] = biological target: T1, BTK (Mus musculus, UniProt P35991); test: BTK engagement in treated mice spleens; type: in vivo; settings: spleen lysates, ibrutinib alkyne analogue, TAMRA-azide
T1 construct: the dissected spleens were extracted with RIPA buffer and incubated with an ibrutinib alkyne analogue; from tissue; host or cells: spleen of mice with adoptively transferred TCL1 leukemic splenocytes
T1 sequence (P35991 whole entry): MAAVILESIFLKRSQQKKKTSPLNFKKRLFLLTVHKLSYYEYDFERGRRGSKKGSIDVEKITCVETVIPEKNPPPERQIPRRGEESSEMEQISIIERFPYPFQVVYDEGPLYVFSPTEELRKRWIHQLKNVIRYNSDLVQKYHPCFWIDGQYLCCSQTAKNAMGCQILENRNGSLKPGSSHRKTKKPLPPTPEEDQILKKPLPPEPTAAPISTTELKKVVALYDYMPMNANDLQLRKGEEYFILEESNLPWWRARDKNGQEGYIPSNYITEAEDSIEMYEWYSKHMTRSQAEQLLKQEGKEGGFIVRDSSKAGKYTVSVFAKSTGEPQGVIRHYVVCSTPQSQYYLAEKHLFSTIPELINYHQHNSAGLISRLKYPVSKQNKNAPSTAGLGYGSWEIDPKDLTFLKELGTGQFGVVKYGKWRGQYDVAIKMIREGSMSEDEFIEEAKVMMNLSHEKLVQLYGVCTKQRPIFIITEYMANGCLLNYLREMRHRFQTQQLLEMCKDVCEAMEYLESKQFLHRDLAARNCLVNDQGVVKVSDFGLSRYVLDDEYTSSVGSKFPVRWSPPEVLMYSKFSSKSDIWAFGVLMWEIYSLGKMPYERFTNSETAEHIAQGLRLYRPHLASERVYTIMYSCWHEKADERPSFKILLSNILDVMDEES
Description: (§1) We tested compound 3c in the TCL1 adoptive transfer mouse model for CLL.[42] In this experiment, immune-competent healthy mice received an adoptive transfer of 4 × 10^7 TCL1 splenocytes obtained from full leukemic TCL1 transgenic mice by intravenous injection (Figure 4D). IgM+/CD5+ cells were monitored weekly, and treatment (or mock treatment) was started 4 weeks after transplantation when CD5+ were > 30% in the blood. The mice received a solution containing sulfamate 3c (0.16 mg/mL in 1% cyclodextrin water) ad libitum in the drinking water. […] Moreover, spleens were isolated from the mice after 2 weeks of treatment and quantified.
Pellets of harvested spleens were lysed using RIPA buffer (Sigma, R0278) and clarified at 21,000g for 15 min at 4 °C, and protein concentration was determined using BCA protein assay (Thermo Scientific, 23225). Lysates were diluted to 2 mg/mL, 50 μL per sample, and incubated for 1 h in room temperature with 1 μM probe 4 to label BTK. Lysates were then clicked to TAMRA-azide and imaged using ChemiDoc MP (546 nm) as described in the in-gel fluorescence protocol.

BTK [2] = biological target: BTK (Homo sapiens, UniProt Q06187); test: BTK activity (autophosphorylation) in Mino cells, Western blot; type: cell-based; parameters: endogenous in cells; host or cells: Mino cells; settings: anti-IgM activation, Western blot normalized to β-actin
Sequence of BTK (Homo sapiens, UniProt Q06187) (Q06187 whole entry): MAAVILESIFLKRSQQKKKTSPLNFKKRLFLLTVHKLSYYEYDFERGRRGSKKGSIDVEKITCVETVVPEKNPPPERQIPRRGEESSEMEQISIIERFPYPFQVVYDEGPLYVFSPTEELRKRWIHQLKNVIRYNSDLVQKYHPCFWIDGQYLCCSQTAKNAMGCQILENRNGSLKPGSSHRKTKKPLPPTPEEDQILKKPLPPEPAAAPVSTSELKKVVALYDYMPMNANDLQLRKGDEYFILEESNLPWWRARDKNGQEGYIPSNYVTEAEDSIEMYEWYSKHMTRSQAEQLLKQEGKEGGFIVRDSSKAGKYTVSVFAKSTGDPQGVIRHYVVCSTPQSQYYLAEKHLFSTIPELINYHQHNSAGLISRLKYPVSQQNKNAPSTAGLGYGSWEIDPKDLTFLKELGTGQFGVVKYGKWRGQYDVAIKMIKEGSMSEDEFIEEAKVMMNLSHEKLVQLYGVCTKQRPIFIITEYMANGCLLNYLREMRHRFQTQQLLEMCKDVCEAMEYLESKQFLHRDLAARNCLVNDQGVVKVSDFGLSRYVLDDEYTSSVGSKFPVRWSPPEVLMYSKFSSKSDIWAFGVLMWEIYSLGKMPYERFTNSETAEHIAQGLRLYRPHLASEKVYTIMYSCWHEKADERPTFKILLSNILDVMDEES
Description: To assess the cellular efficacy of these compounds, we followed the inhibition of BTK autophosphorylation in Mino cells. After 1 h of pre-incubation with the inhibitors and B-cell activation with an anti-IgM antibody, BTK autophosphorylation was followed by Western blot.
The cell pellets were subjected to immunoblotting, and Western blots were performed for p-BTK, BTK, and β-actin.
Cell pellets were washed with ice-cold PBS and lysed using RIPA buffer (Sigma, R0278). […] Samples containing 50 μg total protein were prepared with 4× LDS sample buffer (NuPAGE, Thermo Scientific, NP0007) and 20 mM DTT, which were then resolved on a 4–20% Bis–Tris gel (GeneScript SurePAGE, M00657). […] An EZ-ECL Kit (Biological Industries, 20-500-1000) was used to detect HRP activity.

[3] = Metabolic stability in human liver microsomes; settings: 5 min incubation
Mino cells = test: isoDTB ABPP in Mino cells; type: cell-based, human; settings: for isoDTB-ABPP H/L Ratio: mino cells, 1 µM compound, 2h
IgM+/CD5+ cells = test: TCL1 adoptive transfer mouse model for CLL; type: in vivo; settings: after 2 weeks of treatment, vs untreated mice
Description: as §1
TCL1 mice for this model were generated as previously described.[42] For this experiment, TCL1 mice approximately 12 months of age with a malignant cell population higher than 60% in the PB were sacrificed. Their spleens were excised, and 4 × 10^7 cells resuspended in PBS^–/– were injected into the tail vein of 6 week old recipient mice. Progression of the disease was followed in the PB by using flow cytometry for the +IgM/+CD5 population. Mice with >30% IgM+/CD5+ cells were considered to be diseased and were used for further analysis.
Isolated cells were stained using specific antibodies (IgM-PE, CD5-APC, BioLegend) in staining buffer (0.5% bovine serum albumin in phosphate-buffered saline) for 30 min in 4 °C in dark then washed twice. […]

BTK engagement in vivo (probe labeling of spleen lysate) (BTK [1]) | IC50 (BTK [2]) [nM] | compound remaining intact [3] | Compound | number of off-targets (H/L ratio > 2) (Mino cells; Mino cells, 1 μM, 2 h) | isoDTB-ABPP H/L Ratio (Mino cells; P27708_C379) | isoDTB-ABPP H/L Ratio (Mino cells; P48643_C377) | spleen size (IgM+/CD5+ cells)
do not show probe labeling | 3.6 | over 30% | CNS(=O)(=O)OCC(=O)N1CCC[C@@H](n2nc(-c3ccc(Oc4ccccc4)cc3)c3c(N)ncnc32)C1 [3c] | 10 | 5.926 | 5.696 | decreased spleen size; also recorded: visually smaller
– | 164 | – | Nc1ncnc2c1c(-c1ccc(Oc3ccccc3)cc1)nn2[C@@H]1CCCN(C(=O)COS(=O)(=O)NCc2ccccc2)C1 [3d] | – | – | – | –
